Experimental data from ChEMBL document CHEMBL6178017, “Intercepting the Downstream of the Estrogen Receptor Signaling Pathway: Discovery of a Potent and Efficient SRC-3 PROTAC Degrader for Overcoming Endocrine Resistance Breast Cancer” (J Med Chem, 2025).
Activity calls are given as the source filed them. The rule behind the calls is not given here.

Legend:
[1] = molecular target: T1, Protein cereblon/Nuclear receptor coactivator 3 (Homo sapiens, UniProt Q9Y6Q9+Q96SW2); assay: PROTAC activity at CRBN/SRC-3 in human MCF7 cells assessed as induction of SRC-3 degradation at 1 uM incubated for 24 hrs by immunoblot analysis relative to control; type: cell-based
T1 sequence (Q96SW2 whole entry partner): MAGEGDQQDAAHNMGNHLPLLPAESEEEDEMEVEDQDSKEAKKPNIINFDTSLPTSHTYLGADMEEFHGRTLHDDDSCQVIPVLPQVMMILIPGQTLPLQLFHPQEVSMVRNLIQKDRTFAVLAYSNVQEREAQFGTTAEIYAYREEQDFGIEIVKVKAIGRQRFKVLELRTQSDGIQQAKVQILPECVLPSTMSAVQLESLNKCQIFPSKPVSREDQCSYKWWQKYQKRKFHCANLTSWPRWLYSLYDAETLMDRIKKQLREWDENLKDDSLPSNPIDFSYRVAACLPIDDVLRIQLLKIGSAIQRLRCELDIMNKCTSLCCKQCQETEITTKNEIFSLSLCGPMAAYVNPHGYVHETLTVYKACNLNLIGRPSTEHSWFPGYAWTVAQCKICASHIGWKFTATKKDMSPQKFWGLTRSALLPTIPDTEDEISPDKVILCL
T1 sequence (Q9Y6Q9 2-1424 limits assumed): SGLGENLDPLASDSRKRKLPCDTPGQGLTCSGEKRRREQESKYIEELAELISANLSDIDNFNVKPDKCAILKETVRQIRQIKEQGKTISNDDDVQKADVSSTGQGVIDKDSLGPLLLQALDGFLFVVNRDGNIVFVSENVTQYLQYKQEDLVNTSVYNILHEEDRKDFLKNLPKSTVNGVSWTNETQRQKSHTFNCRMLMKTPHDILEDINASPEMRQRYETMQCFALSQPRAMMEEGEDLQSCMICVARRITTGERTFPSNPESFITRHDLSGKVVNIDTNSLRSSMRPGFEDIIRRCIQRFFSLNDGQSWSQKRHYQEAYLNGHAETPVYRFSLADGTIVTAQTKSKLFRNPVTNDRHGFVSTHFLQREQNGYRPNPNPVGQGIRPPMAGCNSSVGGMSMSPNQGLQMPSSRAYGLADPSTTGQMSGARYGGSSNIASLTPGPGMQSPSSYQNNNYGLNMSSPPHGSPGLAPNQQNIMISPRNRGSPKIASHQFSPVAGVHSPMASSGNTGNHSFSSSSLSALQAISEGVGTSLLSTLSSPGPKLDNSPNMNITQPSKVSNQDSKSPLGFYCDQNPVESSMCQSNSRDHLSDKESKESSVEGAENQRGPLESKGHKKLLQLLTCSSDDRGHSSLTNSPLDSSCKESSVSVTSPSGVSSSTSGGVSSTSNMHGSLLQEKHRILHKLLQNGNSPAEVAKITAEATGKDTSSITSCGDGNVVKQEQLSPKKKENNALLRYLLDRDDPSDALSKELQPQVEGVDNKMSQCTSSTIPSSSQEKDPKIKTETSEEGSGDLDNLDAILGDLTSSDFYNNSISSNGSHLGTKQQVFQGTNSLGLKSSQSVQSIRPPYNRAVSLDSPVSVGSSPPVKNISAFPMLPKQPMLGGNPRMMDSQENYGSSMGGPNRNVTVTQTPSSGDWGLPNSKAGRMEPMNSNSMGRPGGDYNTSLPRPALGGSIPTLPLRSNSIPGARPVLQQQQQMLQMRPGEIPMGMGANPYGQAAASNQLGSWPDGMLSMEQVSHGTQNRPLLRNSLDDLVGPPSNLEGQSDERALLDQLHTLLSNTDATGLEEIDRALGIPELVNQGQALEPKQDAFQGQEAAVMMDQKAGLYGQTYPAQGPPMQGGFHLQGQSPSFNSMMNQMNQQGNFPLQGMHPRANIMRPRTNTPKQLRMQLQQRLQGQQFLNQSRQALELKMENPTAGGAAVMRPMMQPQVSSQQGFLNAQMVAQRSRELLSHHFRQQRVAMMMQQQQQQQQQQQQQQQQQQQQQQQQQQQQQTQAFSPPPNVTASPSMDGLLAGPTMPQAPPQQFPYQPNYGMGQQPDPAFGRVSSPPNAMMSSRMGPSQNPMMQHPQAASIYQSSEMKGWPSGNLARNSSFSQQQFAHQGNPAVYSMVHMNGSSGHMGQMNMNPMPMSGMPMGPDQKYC

[2] = molecular target: T1, Protein cereblon/Nuclear receptor coactivator 3; assay: PROTAC activity at CRBN/SRC-3 in human MCF7 cells assessed as induction of ER-alpha degradation at 1 uM incubated for 24 hrs by immunoblot analysis relative to control; type: cell-based
[3] = tested on: MCF7; assay: Antiproliferative activity against human MCF7 cells assessed as inhibition of cell growth by CCK8 assay; type: functional, cell-based
[4] = tested on: MCF7; assay: Antiproliferative activity against human MCF7 cells harboring ER-alpha D538G mutant assessed as inhibition of cell growth by CCK8 assay; type: functional, cell-based
[5] = molecular target: T1, Protein cereblon/Nuclear receptor coactivator 3; assay: PROTAC activity at CRBN/SRC-3 in human MCF7 cells assessed as induction of SRC-3 degradation incubated for 24 hrs by immunoblot analysis; type: cell-based; settings: dose 0.1-10 µM
[6] = molecular target: T1, Protein cereblon/Nuclear receptor coactivator 3; assay: PROTAC activity at CRBN/SRC-3 in human MCF7 assessed as induction of ER-alpha degradation at 0.1 to 10 uM incubated for 24 hrs by immunoblot analysis; type: cell-based; settings: dose 0.1-10 µM
[7] = molecular target: T1, Protein cereblon/Nuclear receptor coactivator 3; assay: PROTAC activity at CRBN/SRC-3 in tamoxifen-resistant human LCC2 cells assessed as induction of ER-alpha degradation at 5 uM incubated for 24 hrs by immunoblot analysis; type: cell-based; settings: Tamoxifen-resistant LCC2 cell
[8] = molecular target: T1, Protein cereblon/Nuclear receptor coactivator 3; assay: PROTAC activity at CRBN/SRC-3 in human MCF7 cells assessed as induction of SRC-3 degradation at 1 uM incubated for 24 hrs by immunoblot analysis; type: cell-based
[9] = molecular target: T1, Protein cereblon/Nuclear receptor coactivator 3; assay: PROTAC activity at CRBN/SRC-3 in tamoxifen-resistant human LCC2 cells assessed as degradation of SRC-3 at 10 uM measured after 36 hrs by diaPASEF-based quantitative proteomics analysis relative to control; settings: Tamoxifen-resistant LCC2 cell
[10] = molecular target: Cereblon/Casein kinase I alpha (Homo sapiens) (UniProt P48729+Q96SW2); assay: PROTAC activity at CRBN/CK-1 alpha in tamoxifen-resistant human LCC2 cells assessed as degradation of CK-1alpha at 10 uM measured after 36 hrs by diaPASEF-based quantitative proteomics analysis; settings: Tamoxifen-resistant LCC2 cell
[11] = molecular target: T1, Protein cereblon/Nuclear receptor coactivator 3; assay: PROTAC activity at CRBN/SRC-3 in human MCF7 cells overexpressing EGFR assessed as downregulation of ER-alpha level at 0.01 to 10 uM measured after 36 hrs by immunoblot analysis; type: cell-based; settings: dose 0.01-10 µM
[12] = molecular target: Protein cereblon/Nuclear receptor coactivator 1 (Homo sapiens) (UniProt Q15788+Q96SW2); assay: PROTAC activity at CRBN/SRC-1 in human MCF7 cells assessed as induction of SRC-1 degradation at 0.01 to 10 uM measured after 36 hrs by immunoblot analysis; type: cell-based; settings: dose 0.01-10 µM
Sequence of Protein cereblon/Nuclear receptor coactivator 1 (Homo sapiens) (Q15788 whole entry, looked up): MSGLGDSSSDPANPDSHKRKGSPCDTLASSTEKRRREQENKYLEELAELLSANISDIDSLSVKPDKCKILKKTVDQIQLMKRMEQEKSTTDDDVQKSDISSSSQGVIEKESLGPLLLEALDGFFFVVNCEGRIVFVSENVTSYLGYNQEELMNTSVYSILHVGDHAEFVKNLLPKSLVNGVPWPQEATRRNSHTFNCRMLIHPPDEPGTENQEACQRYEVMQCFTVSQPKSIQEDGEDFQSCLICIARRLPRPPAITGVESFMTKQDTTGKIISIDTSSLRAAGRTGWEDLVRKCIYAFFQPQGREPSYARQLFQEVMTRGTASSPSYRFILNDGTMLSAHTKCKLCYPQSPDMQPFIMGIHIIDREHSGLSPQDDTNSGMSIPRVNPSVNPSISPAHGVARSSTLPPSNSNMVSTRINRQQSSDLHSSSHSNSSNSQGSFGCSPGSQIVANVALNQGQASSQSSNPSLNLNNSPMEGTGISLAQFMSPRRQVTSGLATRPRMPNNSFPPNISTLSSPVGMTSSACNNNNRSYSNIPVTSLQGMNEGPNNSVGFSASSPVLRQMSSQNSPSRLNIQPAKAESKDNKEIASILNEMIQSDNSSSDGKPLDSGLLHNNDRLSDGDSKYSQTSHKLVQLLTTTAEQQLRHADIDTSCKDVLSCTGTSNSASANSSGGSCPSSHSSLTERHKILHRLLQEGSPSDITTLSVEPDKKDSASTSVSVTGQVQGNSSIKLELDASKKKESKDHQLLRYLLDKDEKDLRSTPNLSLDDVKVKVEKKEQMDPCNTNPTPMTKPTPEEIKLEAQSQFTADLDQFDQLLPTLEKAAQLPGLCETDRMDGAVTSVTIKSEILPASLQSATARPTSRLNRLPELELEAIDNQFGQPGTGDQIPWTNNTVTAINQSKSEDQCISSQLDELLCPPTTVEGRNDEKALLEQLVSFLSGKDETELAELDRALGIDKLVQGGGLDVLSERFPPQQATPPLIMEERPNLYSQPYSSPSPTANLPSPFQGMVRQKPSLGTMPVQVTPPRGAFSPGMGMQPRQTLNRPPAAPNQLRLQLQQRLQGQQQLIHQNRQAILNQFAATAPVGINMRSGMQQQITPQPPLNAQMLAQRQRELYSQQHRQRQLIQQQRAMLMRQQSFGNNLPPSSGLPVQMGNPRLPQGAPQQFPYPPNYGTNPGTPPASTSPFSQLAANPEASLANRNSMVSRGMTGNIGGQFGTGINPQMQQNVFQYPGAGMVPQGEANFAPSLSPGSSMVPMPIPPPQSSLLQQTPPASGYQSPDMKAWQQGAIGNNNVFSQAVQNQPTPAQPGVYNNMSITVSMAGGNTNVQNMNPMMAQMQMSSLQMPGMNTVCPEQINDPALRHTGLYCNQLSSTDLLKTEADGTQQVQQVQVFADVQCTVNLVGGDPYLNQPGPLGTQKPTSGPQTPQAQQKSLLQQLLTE
Sequence of Protein cereblon/Nuclear receptor coactivator 1 (Homo sapiens) (Q96SW2 whole entry, looked up): as the sequence (Q96SW2 whole entry partner) above

[13] = molecular target: Protein cereblon/Nuclear receptor coactivator 2 (Homo sapiens) (UniProt Q15596+Q96SW2); assay: PROTAC activity at CRBN/SRC-2 in human MCF7 cells assessed as induction of SRC-2 degradation at 0.01 to 10 uM measured after 36 hrs by immunoblot analysis; type: cell-based; settings: dose 0.01-10 µM
Sequence of Protein cereblon/Nuclear receptor coactivator 2 (Homo sapiens) (Q15596 whole entry, looked up): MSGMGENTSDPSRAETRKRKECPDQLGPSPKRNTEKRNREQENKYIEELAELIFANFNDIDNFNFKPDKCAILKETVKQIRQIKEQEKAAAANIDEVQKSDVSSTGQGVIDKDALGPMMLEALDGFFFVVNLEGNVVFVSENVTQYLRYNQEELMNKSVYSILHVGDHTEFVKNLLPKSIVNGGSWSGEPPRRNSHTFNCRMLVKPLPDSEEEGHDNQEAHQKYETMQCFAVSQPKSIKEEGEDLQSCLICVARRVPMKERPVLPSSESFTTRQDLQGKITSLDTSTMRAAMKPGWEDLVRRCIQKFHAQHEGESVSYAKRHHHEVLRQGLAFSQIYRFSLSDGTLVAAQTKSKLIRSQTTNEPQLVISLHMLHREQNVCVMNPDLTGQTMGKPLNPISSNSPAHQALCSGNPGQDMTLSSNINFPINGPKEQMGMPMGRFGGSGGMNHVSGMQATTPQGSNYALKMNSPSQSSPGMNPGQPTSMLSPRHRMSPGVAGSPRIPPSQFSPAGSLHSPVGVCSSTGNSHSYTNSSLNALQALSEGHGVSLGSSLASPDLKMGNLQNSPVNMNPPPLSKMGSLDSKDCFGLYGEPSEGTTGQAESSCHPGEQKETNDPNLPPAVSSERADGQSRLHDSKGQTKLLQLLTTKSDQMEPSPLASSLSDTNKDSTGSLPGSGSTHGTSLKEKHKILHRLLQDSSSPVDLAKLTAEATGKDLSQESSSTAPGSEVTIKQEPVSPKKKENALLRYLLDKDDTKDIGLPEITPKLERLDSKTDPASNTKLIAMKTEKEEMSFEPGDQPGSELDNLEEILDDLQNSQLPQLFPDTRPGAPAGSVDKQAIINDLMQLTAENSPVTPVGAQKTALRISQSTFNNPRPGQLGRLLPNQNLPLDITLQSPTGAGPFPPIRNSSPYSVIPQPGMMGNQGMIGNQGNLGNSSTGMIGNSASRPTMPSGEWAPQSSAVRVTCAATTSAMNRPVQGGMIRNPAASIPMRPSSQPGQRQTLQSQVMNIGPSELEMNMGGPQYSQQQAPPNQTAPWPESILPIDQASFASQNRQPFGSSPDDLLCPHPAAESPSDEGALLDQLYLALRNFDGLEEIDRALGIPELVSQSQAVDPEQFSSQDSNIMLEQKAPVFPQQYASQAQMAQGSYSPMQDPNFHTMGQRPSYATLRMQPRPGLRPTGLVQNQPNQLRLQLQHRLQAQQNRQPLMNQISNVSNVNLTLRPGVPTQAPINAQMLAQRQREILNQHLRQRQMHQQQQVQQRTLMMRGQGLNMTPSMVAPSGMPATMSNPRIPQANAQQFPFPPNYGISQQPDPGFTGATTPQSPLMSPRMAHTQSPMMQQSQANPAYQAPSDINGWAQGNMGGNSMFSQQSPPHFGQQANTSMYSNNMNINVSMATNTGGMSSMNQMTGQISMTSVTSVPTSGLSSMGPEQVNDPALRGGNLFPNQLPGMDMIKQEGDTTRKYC
Sequence of Protein cereblon/Nuclear receptor coactivator 2 (Homo sapiens) (Q96SW2 whole entry, looked up): as the sequence (Q96SW2 whole entry partner) above

[14] = molecular target: T1, Protein cereblon/Nuclear receptor coactivator 3; assay: PROTAC activity at CRBN/SRC-3 in human MCF7 cells assessed as induction of SRC-3 degradation at 1 uM preincubated with autophagy inhibitor, chloroquine for 2 hrs followed by incubation with compound and measured after 36 hrs by immunoblot analysis; type: cell-based
[15] = molecular target: T1, Protein cereblon/Nuclear receptor coactivator 3; assay: PROTAC activity at CRBN/SRC-3 in tamoxifen-resistant human LCC2 cells assessed as induction of SRC-3 degradation at 1 uM preincubated with proteasome inhibitor, MG-132 for 2 hrs followed by incubation with compound and measured after 36 hrs by immunoblot analysis; type: cell-based; settings: Tamoxifen-resistant LCC2 cell
[16] = molecular target: T1, Protein cereblon/Nuclear receptor coactivator 3; assay: PROTAC activity at CRBN/SRC-3 in tamoxifen-resistant human LCC2 cells assessed as induction of SRC-3 degradation at 1 uM preincubated with autophagy inhibitor, choloroquine for 2 hrs followed by incubation with compound and measured after 36 hrs by immunoblot analysis; type: cell-based; settings: Tamoxifen-resistant LCC2 cell
[17] = molecular target: Nuclear receptor coactivator 3 (Homo sapiens) (UniProt Q9Y6Q9); assay: Binding affinity to SRC-3 in human MCF7 cells assessed as increase in thermal stability of the protein at 1 uM incubated for 6 hrs followed by exposure to higher temperatures for 5 mins by CETSA analysis; type: cell-based; settings: time 365.0 min
Sequence of Nuclear receptor coactivator 3 (Homo sapiens) (Q9Y6Q9 2-1424 limits assumed): as the sequence (Q9Y6Q9 2-1424 limits assumed) above

[18] = tested on: Tamoxifen-resistant LCC2 cell; assay: Upregulation of SRC3 mRNA expression in tamoxifen-resistant human LCC2 cells at 0.01 to 10 uM incubated for 36 hrs by qRT-PCR analysis; type: functional, cell-based; settings: dose 0.01-10 µM
[19] = Induction of apoptosis in tamoxifen-resistant human LCC2 cells assessed as early apoptotic cells at 10 uM incubated for 48 hrs by AnnexinV-FITC/PI staining based flow cytometry (reference value: 5.92%); type: functional, Tamoxifen-resistant LCC2 cell
[20] = Induction of apoptosis in tamoxifen-resistant human LCC2 cells assessed as necrotic cells at 10 uM incubated for 48 hrs by AnnexinV-FITC/PI staining based flow cytometry (reference value: 1.16%); type: functional, Tamoxifen-resistant LCC2 cell
[21] = Induction of cell cycle arrest in tamoxifen-resistant human LCC2 cells assessed as accumulation of cells at S phase at 20 uM incubated for 48 hrs by propidium iodide staining based flow cytometry (reference value: 9.72%); type: functional
[22] = Induction of cell cycle arrest in tamoxifen-resistant human LCC2 cells assessed as accumulation of cells at G1 phase at 10 uM incubated for 48 hrs by propidium iodide staining based flow cytometry (reference value: 78.71%); type: functional
[23] = Induction of cell cycle arrest in tamoxifen-resistant human LCC2 cells assessed as accumulation of cells at S phase at 5 uM incubated for 48 hrs by propidium iodide staining based flow cytometry (reference value: 9.72%); type: functional
[24] = Half life in human liver microsomes in presence of NADPH by LC-MS/MS analysis; type: ADME, Microsome
[25] = Hepatic clearance in human liver microsomes in presence of NADPH by LC-MS/MS analysis; type: ADME, Microsome
[26] = Volume of distribution at steady state in Balb/c mouse at 2 mg/kg, iv by LC-MS/MS analysis; type: ADME, organism-based; settings: in vivo, read-out: Vdss
[27] = Metabolic stability of the compound in human plasma measured after 2 hrs by LC-MS/MS analysis; type: ADME, cell-free; settings: read-out: Stability
[28] = Cmax in Balb/c mouse at 2 mg/kg, iv by LC-MS/MS analysis; type: ADME, organism-based; settings: in vivo
[29] = AUC(0 to infinity) in Balb/c mouse at 2 mg/kg, iv by LC-MS/MS analysis; type: ADME, organism-based; settings: in vivo
[30] = Half life in Balb/c mouse at 4 mg/kg, ip by LC-MS/MS analysis; type: ADME, organism-based; settings: in vivo
[31] = AUC (0 to infinity) in Balb/c mouse at 4 mg/kg, ip by LC-MS/MS analysis; type: ADME, organism-based; settings: in vivo
[32] = tested on: Tamoxifen-resistant LCC2 cell; assay: Antitumor activity against tamoxifen-resistant human LCC2 cells xenografted in Balb/c mouse assessed as inhibition of tumor growth at 3 uM/Kg, ip administered once every 2 days for 23 days; type: functional, organism-based; settings: time 23.0 day
[33] = Toxicity against Balb/c mouse xenografted with tamoxifen-resistant human LCC2 cells assessed as effect on kidney pathological changes at 3 to 5 uM/Kg, ip administered once every 2 days for 23 days and measured on day 25 by Hematoxylin-Eosin based […] staining analysis; type: organism-based; settings: in vivo, 600 h, dose 3-5 µM/Kg, time 25 day

Structure (SMILES): C/C(=N\Nc1nc2ccccc2n1C1CN(C2CCN(c3cccc4c3C(=O)N(C3CCC(=O)NC3=O)C4=O)CC2)C1)c1ccccn1 (stereo not drawn)
- Activity [1]: 71%
- Activity [2]: 85%
- IC50 [3]: 10 nM
- IC50 [4]: 150 nM
- Activity [5]: Dose-dependent-effect
- Activity [6]: Active
- Activity [7]: Active; Higher Efficacy Compared To Fulvestrant At The Same Concentration Observed
- Activity [8]: Active
- log2FC [9]: 0.25
- Activity [10]: inactive
- Activity [11]: Active
- Activity [12]: Active; Moderate Degradation Against Src-1 Compared To Src-3 Observed
- Activity [13]: Active; Minimal Activity Against Src-2 Compared To Src-3 Observed
- Activity [14]: Active
- Activity [15]: inactive
- Activity [16]: Active
- Activity [17]: Active
- Activity [18]: Active
- Activity [19]: 24.23%
- Activity [20]: 6.62%
- Activity [21]: 11.58%
- Activity [22]: 85.01%
- Activity [23]: 14.53%
- half-life [24]: 8.46 min
- CLhep predicted [25]: 18.7 mL/min/kg
- Vd [26]: 29.1 L/kg
- remaining at 2 h [27]: > 50%
- Cmax [28]: 148 ng/mL
- AUC(0-inf) [29]: 367 ng·h/mL
- half-life [30]: 3.46 h
- AUC(0-inf) [31]: 55.2 ng·h/mL
- Activity [32]: Active
- Activity [33]: Non-toxic
